Several values for one entry are separate records, joined by “and”; a condition that tells them apart may be missing. Identical values can stand only once. Entries after “also recorded” stand apart in the source; their conditions may differ.
Assays:
Assay type in all cases: in vivo, human
[1] = tested on: intermediate-2 or high-risk myelofibrosis (MF) relapsed/refractory to JAK inhibitor; experiment: Phase 2 study: overall survival (OS); settings: 9.4 mg/kg arm
Source text: (§1) Diagnosis of primary, post-essential thrombocythemia, or post-polycythemia vera MF was required; other eligibility criteria included measurable splenomegaly (by magnetic resonance imaging [MRI]), active MF-related systemic symptoms and platelet count ≥75×10^9/L. Primary endpoints were: spleen response rate (% achieving ≥35% spleen volume reduction [SVR] by MRI at week 24); and symptom response rate (% achieving ≥50% reduction in total symptom score [TSS] per the Myelofibrosis Symptom Assessment Form (MFSAF) v2 at week 24). Key secondary endpoints included safety, overall survival (OS), treatment response, molecular response, and pharmacokinetic and pharmacodynamic relationships.

[2] = tested on: intermediate-2 or high-risk myelofibrosis (MF) relapsed/refractory to JAK inhibitor; experiment: Phase 2 study: symptom response (total symptom score, TSS, MFSAF v2 at week 24); settings: for subjects with TSS >= 50% decrease at week 24, No / subjects with TSS >= 50% decrease at week 24, Yes: 9.4 mg/kg
Source text: as §1

[3] = tested on: intermediate-2 or high-risk myelofibrosis (MF) relapsed/refractory to JAK inhibitor; experiment: Phase 2 study: spleen response (spleen volume reduction, SVR, by MRI at week 24); settings: for subjects with SVR >= 20% at week 24, No / subjects with SVR >= 20% at week 24, Yes / subjects with SVR >= 35% at wk 24 by IRC, No / subjects with SVR >= 35% at wk 24 by IRC, Yes / subjects with SVR >= 20% at Week 24 by IRC, No / subjects with SVR >= 20% at Week 24 by IRC, Yes / subjects with SVR >= 35% at Week 24 by IRC, Yes / subjects with SVR >= 35% at week 24 by IRC, No: 9.4 mg/kg
Source text: as §1

[4] = all patients, first clinical cutoff
[5] = HMR with 1 Mutation, 21 subjects
[6] = HMR with >1 Mutation, 14 subjects

## DNA, d(3′-amino-3′-deoxy-P-thio) (T-A-G-G-G-T-T-A-G-A-C-A-A), 5′-[O-[2-hydroxy-3-(hexadecanoylamino)propyl] phosphorothioate], sodium salt (1:13) [imetelstat sodium]
[1]; Non-TN subjects, first clinical cutoff
  Median survival, months (95% CI): 23.6 months and 23.6 (20.7, NE) months
[1]; Non-TN vs TN, first clinical cutoff
  OS HR (95% CI): 2.76 (0.81, 9.46)
[1]; Non-TN, first clinical cutoff
  Death rate %: 41.5%
[1]; TN subjects, first clinical cutoff
  Median survival, months (95% CI): has not been reached; also recorded: not estimable; also recorded: NE (23.2, NE)
[1]; TN, first clinical cutoff
  Death rate %: 18.8%
[1]; [4]
  18-month survival rate: 76.7%
  median OS: has not been reached
[1]; all patients, second clinical cutoff
  median OS: 29.9 months
[1]; first clinical cutoff
  death rate, TN group compared to Non-TN group: lower death rate
[1]; second clinical cutoff
  death rate, TN group compared to Non-TN group: lower death rate
[2]; 9.4 mg/kg arm, all patients (n = 59)
  symptom response rate (TSS reduction >=50% at week 24): 32%
[2]; [5]
  subjects with TSS >= 50% decrease at week 24, No: 14 (66.7%)
  subjects with TSS >= 50% decrease at week 24, Yes: 7 (33.3%)
[2]; [6]
  subjects with TSS >= 50% decrease at week 24, No: 11 (78.6%)
  subjects with TSS >= 50% decrease at week 24, Yes: 3 (21.4%)
[2]; LMR, No Mutation, 22 subjects
  subjects with TSS >= 50% decrease at week 24, No: 14 (63.6%)
  subjects with TSS >= 50% decrease at week 24, Yes: 8 (36.4%)
[2]; Non-TN, 41 subjects
  subjects with TSS >= 50% decrease at week 24, No: 31 (75.6%)
  subjects with TSS >= 50% decrease at week 24, Yes: 10 (24.4%)
[2]; TN, 16 subjects
  subjects with TSS >= 50% decrease at week 24, No: 8 (50%)
  subjects with TSS >= 50% decrease at week 24, Yes: 8 (50%)
[3]; 9.4 mg/kg IV every 3 weeks arm, all patients (n = 59)
  spleen response rate (>=35% SVR by MRI at week 24): 10.2%
[3]; 9.4 mg/kg arm, week 24
  rate of response (SVR or TSS), LMR or HMR with only 1 mutation compared to HMR with more than 1 mutations: higher rate of response
  rate of response (SVR or TSS), TN group compared to Non-TN group: higher rate of response
[3]; [5]
  subjects with SVR >= 20% at week 24, No: 15 (71.4%)
  subjects with SVR >= 20% at week 24, Yes: 6 (28.6%)
  subjects with SVR >= 35% at wk 24 by IRC, No: 17 (81%)
  subjects with SVR >= 35% at wk 24 by IRC, Yes: 4 (19%)
[3]; [6]
  subjects with SVR >= 20% at week 24, No: 13 (92.9%)
  subjects with SVR >= 20% at week 24, Yes: 1 (7.1%)
  subjects with SVR >= 35% at wk 24 by IRC, Yes: 0 (0%)
[3]; LMR, No Mutation, 22 subjects
  subjects with SVR >= 20% at week 24, No: 17 (77.3%)
  subjects with SVR >= 20% at week 24, Yes: 5 (22.7%)
  subjects with SVR >= 35% at wk 24 by IRC, No: 20 (90.9%)
  subjects with SVR >= 35% at wk 24 by IRC, Yes: 2 (9.1%)
[3]; Non-TN, 41 subjects
  subjects with SVR >= 20% at Week 24 by IRC, No: 34 (82.9%)
  subjects with SVR >= 20% at Week 24 by IRC, Yes: 7 (17.1%)
  subjects with SVR >= 35% at Week 24 by IRC, Yes: 3 (7.3%)
  subjects with SVR >= 35% at week 24 by IRC, No: 38 (92.7%)
[3]; TN, 16 subjects
  subjects with SVR >= 20% at Week 24 by IRC, No: 11 (68.75)) %
  subjects with SVR >= 20% at Week 24 by IRC, Yes: 5 (31.25%)
  subjects with SVR >= 35% at Week 24 by IRC, Yes: 3 (18.75%)
  subjects with SVR >= 35% at week 24 by IRC, No: 13 (81.25%)
[3]; patients with 1 HMR mutation (ASXL1, EZH2, SRSF2, or IDH1/2)
  spleen response rate, comparison by HMR mutation: higher
